Test results reported in ChEMBL document CHEMBL6074642, “Natural and Bioinspired Lipidic Alkynylcarbinols as Leishmanicidal, Antiplasmodial, Trypanocidal, Fungicidal, Antibacterial, and Antimycobacterial Agents” (J Nat Prod, 2024).
≈ marks a conversion by molar mass, not a printed value.

Assays:
Escherichia coli [1] = experiment: Antibacterial activity against Escherichia coli DC2; format: functional
Pseudomonas aeruginosa [2] = experiment: Antibacterial activity against Pseudomonas aeruginosa ATCC 15442 […] assessed as reduction in bacterial growth after 18 to 20 hrs by CLSI-based broth microdilution assay; format: functional; conditions: time 18-20 hrs
Staphylococcus aureus [3] = experiment: Antibacterial activity against methicillin-resistant Staphylococcus aureus K147 assessed as reduction in bacterial growth; format: functional
Staphylococcus aureus [4] = experiment: Antibacterial activity against methicillin-resistant Staphylococcus aureus SAP0017 assessed as reduction in bacterial growth; format: functional
Bacillus subtilis [5] = experiment: Antibacterial activity against Bacillus subtilis NBRC 3513; format: functional
[6] = system: Mycobacterium tuberculosis; experiment: Antimycobacterial activity against Mycobacterium tuberculosis H37Rv; format: functional
[7] = system: Mycobacterium tuberculosis; experiment: Antimycobacterial activity against Mycobacterium tuberculosis Erdman; format: functional
Trypanosoma brucei = experiment: Antitrypanosomal activity against Trypanosoma brucei assessed as inhibition of parasite growth incubated for 72 hrs by resazurin reagent fluorimetric analysis; format: functional, organism-based
Escherichia coli [8] = experiment: Antibacterial activity against Escherichia coli DC2 assessed as reduction in bacterial growth; format: functional
Staphylococcus aureus [9] = experiment: Antimicrobial activity against methicillin-sensitive Staphylococcus aureus K147 assessed as reduction in microbial growth; format: functional
Staphylococcus aureus [10] = experiment: Antibacterial activity against Staphylococcus aureus SAP0017 assessed as reduction in bacterial growth; format: functional
Bacillus subtilis [11] = experiment: Antibacterial activity against Bacillus subtilis assessed as reduction in microbial growth; format: functional
[12] = system: Mycobacterium tuberculosis; experiment: Antimycobacterial activity against Mycobacterium tuberculosis Erdman ATCC 35801; format: functional
Leishmania amazonensis = experiment: Antileishmanial activity against leishmania amazonensis promastigotes MHOM/BR/77/LTB0016 assessed as assessed as parasite growth inhibition incubated for 72 hrs by Alamar Blue assay; format: functional, organism-based; conditions: MHOM/BR/77/LTB0016, 72 h
Leishmania mexicana [13] = experiment: Antileishmanial activity against Leishmania mexicana promastigotes; format: functional, organism-based
Leishmania mexicana [14] = experiment: Antileishmanial activity against Leishmania mexicana amastigotes; format: functional, organism-based
Pseudomonas aeruginosa [15] = experiment: Antibacterial activity against Pseudomonas aeruginosa assessed as reduction in bacterial growth incubated for 24 hrs by broth microdilution method; format: functional, organism-based
[16] = system: Mycobacterium intracellulare; experiment: Antibacterial activity against Mycobacterium intracellulare; format: functional, organism-based
Leishmania donovani [17] = experiment: Antileishmanial activity against Leishmania donovani amastigotes infected in J774 macrophage assessed as inhibition of parasite growth incubated for 48 hrs by luciferase assay; format: functional, organism-based; conditions: J774, 48 h
Leishmania donovani [18] = experiment: Antileishmanial activity against amastigote form of Leishmania donovani infected in BALB/c mouse assessed as inhibition of parasite growth in liver at 10 mg/kg, po measured for 7 days by geimsa staining based analysis relative to control; format: functional; parameters: scale not given: the % may be the effect or the level left; conditions: time 7 day
Phytophthora capsici = experiment: Antifungal activity against Phytophthora capsici; format: functional, organism-based
Bacillus subtilis [19] = experiment: Antibacterial activity against Bacillus subtilis PY79 assessed as reduction in bacterial growth; format: functional, organism-based
Bipolaris sorokiniana = experiment: Antifungal activity against Cochliobolus sativus; format: functional, organism-based
[20] = system: Colletotrichum gloeosporioides; experiment: Antifungal activity against Colletotrichum gloeosporioides; format: functional, organism-based
Alternaria kikuchiana = experiment: Antifungal activity against Alternaria kikuchiana; format: functional, organism-based
[21] = system: Mycobacterium tuberculosis; experiment: Antimycobacterial activity against Mycobacterium tuberculosis H37Ra; format: functional, organism-based
Streptococcus pyogenes = experiment: Antibacterial activity against Streptococcus pyogenes assessed as bacterial growth inhibition; format: functional
Bacillus subtilis [22] = experiment: Antibacterial activity against Bacillus subtilis; format: functional
[23] = system: Mycobacterium tuberculosis; experiment: Antimycobacterial activity against Mycobacterium tuberculosis H37Rv assessed as inhibition of bacterial growth by MABA assay; format: functional
[24] = system: Mycobacterium tuberculosis; experiment: Antimycobacterial activity against Mycobacterium tuberculosis Erdman assessed as inhibition of bacterial growth by MABA assay; format: functional
Plasmodium falciparum = experiment: Antiparasitic activity against Plasmodium falciparum K1 assessed as reduction in parasite growth; format: functional, organism-based

**Q.** How did the MIC (Escherichia coli [1]) turn out when `C=CC(O)C#CC#CC(O)/C=C\C(O)CCCCCC` (centres undefined) was run?
**A.** Its MIC is 200 µg/mL (≈ 724 µM).

**Q.** What about the MIC (Pseudomonas aeruginosa [2]) of the same molecule?
**A.** The MIC was 200 µg/mL (≈ 724 µM).

**Q.** And the MIC (Staphylococcus aureus [3])?
**A.** Its MIC is 200 µg/mL (≈ 724 µM).

**Q.** And the MIC (Staphylococcus aureus [4])?
**A.** The MIC was 200 µg/mL (≈ 724 µM).

**Q.** What about the MIC (Bacillus subtilis [5]) of the same molecule?
**A.** Its MIC is 200 µg/mL (≈ 724 µM).

**Q.** Which MIC [6] does the source give for `C=CC(O)C#CC#CC(O)/C=C\CCCCCCCCOC(C)=O` (centres undefined) here?
**A.** Its MIC is 25 µg/mL (≈ 75.2 µM).

**Q.** What about the MIC [7] of the same molecule?
**A.** The MIC was 1.4 µg/mL (≈ 4.21 µM).

**Q.** With `C=CC(C#CC#CC(O)CCCCCCCCC)OC(C)=O` (centres undefined) as the molecule, how does the IC50 (Trypanosoma brucei) read?
**A.** Its IC50 is 0.46 µM.

**Q.** What does the source list for `C=C[C@H](O)C#CC#C[C@@H](O)/C=C\CCCCCCC`?
**A.** MIC (Escherichia coli [8]): 2.5 µg/mL (≈ 9.6 µM); MIC (Staphylococcus aureus [9]): 12 µg/mL; MIC (Staphylococcus aureus [10]): 25 µg/mL (≈ 96 µM); MIC (Bacillus subtilis [11]): 12 µg/mL; MIC [6]: 27 µg/mL (≈ 104 µM); MIC [7]: 6 µg/mL (≈ 23 µM); MIC [12]: 6.2 µg/mL (≈ 23.8 µM)

**Q.** How did the IC50 (Leishmania amazonensis) turn out when `C=CC(O)C#CC#CC(O)/C=C\CCCCCCC` (centres undefined) was run?
**A.** Its IC50 is 5.7 µM.

**Q.** Which IC50 (Leishmania mexicana [13]) does the source give for `C=CCCCCC/C=C\CC#CC#C[C@@H](O)C=C` here?
**A.** Its IC50 is 0.28 µg/mL (≈ 1.16 µM).

**Q.** What about the IC50 (Leishmania mexicana [14]) of the same molecule?
**A.** Its IC50 is 0.18 µg/mL (≈ 0.743 µM).

**Q.** Which results are given for `CCCCCC/C=C\CCCCCCCCC[C@@H](O)C#CC#CCO`?
**A.** IC50 (Pseudomonas aeruginosa [15]): 2.6 µM; IC50 [16]: 23 µM

**Q.** Which results are given for `C=C[C@@H](C#CC#C[C@@H](CCCCCCCCC)NC(=O)c1ccccc1)OC(C)=O`?
**A.** IC50 (Leishmania donovani [17]): 0.03 µM; Activity (Leishmania donovani [18]): 26%

**Q.** `C=C[C@H](O)C#CC#C[C@@H](O)c1cccs1` was tested. Which EC50 (Phytophthora capsici) did it give?
**A.** Its EC50 is 3.6 µg/mL (≈ 16.5 µM).

**Q.** For `C#CC(O)/C=C/C(O)CCCC(O)CC#CC(O)C#CCCCCC(=O)CCCCC/C=C/C(O)CCCCCCCCCCCCC(O)C(O)C(O)C#CC(=O)O` (centres undefined), which IC50 (Bacillus subtilis [19]) is on record?
**A.** The IC50 was 12 µg/mL (≈ 14.8 µM).

**Q.** For `C=C[C@H](O)C#CC#CC/C=C/CCCCCCCC`, which EC50 (Bipolaris sorokiniana) is on record?
**A.** Its EC50 is 9 µg/mL (≈ 34.8 µM).

**Q.** What about the EC50 [20] of the same molecule?
**A.** Its EC50 is 46 µg/mL (≈ 178 µM).

**Q.** And the EC50 (Alternaria kikuchiana)?
**A.** The EC50 was 41 µg/mL (≈ 159 µM).

**Q.** With `CCCC/C=C/C#CC#CC(O)CCCCCCC(=O)O` (centres undefined) as the molecule, how does the IC50 [21] read?
**A.** The IC50 was 25 µg/mL (≈ 86.1 µM).

**Q.** With `C=C[C@@H](C#CC#C[C@@H](CCCCCCCCC)NS(C)(=O)=O)OC(C)=O` as the molecule, how does the IC50 (Leishmania donovani [17]) read?
**A.** Its IC50 is 0.05 µM.

**Q.** And the MIC (Streptococcus pyogenes)?
**A.** Its MIC is 8 µM (≈ 3.05 µg/mL).

**Q.** What about the MIC (Bacillus subtilis [22]) of the same molecule?
**A.** The MIC was 4 µM (≈ 1.53 µg/mL).

**Q.** Which MIC [23] does the source give for `C=CC(O)C#CC#CC(O)C1OC1CCCCCCC` (centres undefined) here?
**A.** Its MIC is greater than 60 µg/mL.

**Q.** And the MIC [24]?
**A.** Its MIC is greater than 60 µg/mL.

**Q.** `CC(C)CCCC/C=C\CCCCCCCCC[C@@H](O)C#CC#CCO` was tested. Which IC50 (Pseudomonas aeruginosa [15]) did it give?
**A.** Its IC50 is 1.7 µM.

**Q.** What about the IC50 [16] of the same molecule?
**A.** Its IC50 is 9.9 µM.

**Q.** With `C=C[C@H](C#CC#C[C@@H](O)CCCCCCCCC)OC(C)=O` as the molecule, how does the IC50 (Leishmania donovani [17]) read?
**A.** Its IC50 is greater than 10 µM.

**Q.** What about the IC50 (Plasmodium falciparum) of the same molecule?
**A.** The IC50 was 8.15 µg/mL (≈ 26.8 µM).

**Q.** For `C=C[C@H](C#CC#C[C@H](O)CCCCCCCCC)OC(C)=O`, which IC50 (Leishmania donovani [17]) is on record?
**A.** The IC50 was greater than 10 µM.

**Q.** What about the IC50 (Plasmodium falciparum) of the same molecule?
**A.** The IC50 was 8.07 µg/mL (≈ 26.5 µM).

**Q.** With `C=C[C@@H](O)C#CC#C/C=C/[C@H](O)CCCCCCCC` as the molecule, how does the EC50 (Bipolaris sorokiniana) read?
**A.** The EC50 was 37 µg/mL (≈ 135 µM).

**Q.** `C=C[C@H](O)C#CC#C[C@@H](CCCCCCCCC)NCCCC` was tested. Which IC50 (Leishmania donovani [17]) did it give?
**A.** The IC50 was 0.003 µM.

**Q.** `C#CC(O)/C=C/C(O)CCCC(O)CC#CC(O)C#CCCCC(O)/C=C/CCCCCC(=O)CCCCCCCCCCCCCC(O)C(O)C(O)C#CC(=O)O` (centres undefined) was tested. Which IC50 (Bacillus subtilis [19]) did it give?
**A.** The IC50 was 12 µg/mL (≈ 14.8 µM).

**Q.** `C=CC(O)C#CC#C/C=C/C(O)CCCCCCC` (centres undefined) was tested. Which IC50 (Leishmania amazonensis) did it give?
**A.** The IC50 was 5.8 µM.

**Q.** With `CCCCCCCCCCCCC1CC1CCCC(O)C#CC#CCO` (centres undefined) as the molecule, how does the IC50 (Pseudomonas aeruginosa [15]) read?
**A.** The IC50 was 1.8 µM.

**Q.** And the IC50 [16]?
**A.** Its IC50 is 14 µM.

**Q.** With `C=C[C@@H](O)C#CC#CC/C=C/CCCCCCCC` as the molecule, how does the EC50 (Alternaria kikuchiana) read?
**A.** The EC50 was 51 µg/mL (≈ 197 µM).

**Q.** Which IC50 (Pseudomonas aeruginosa [15]) does the source give for `CCCCCCCC/C=C\CCCCCCCCC[C@@H](O)C#CC#CCO` here?
**A.** The IC50 was 2.9 µM.

**Q.** What about the IC50 [16] of the same molecule?
**A.** Its IC50 is 17 µM.

**Q.** With `C#CC(O)/C=C/C(O)CCCC(O)CC#CC(O)C#CC(O)CCCC(=O)CCCCC/C=C/C(O)CCCCCCCCCCCCCC(O)C(O)C#CC(=O)O` (centres undefined) as the molecule, how does the IC50 (Bacillus subtilis [19]) read?
**A.** Its IC50 is 12 µg/mL (≈ 14.8 µM).
